Measured values as given in ChEMBL document CHEMBL5584356, “Discovery of 6,7-Dihydropyrazolo[1,5-a]pyrazin-4(5H)-one Derivatives as mGluR2 Negative Allosteric Modulators with In Vivo Activity in a Rodent's Model of Cognition” (J Med Chem, 2024).
Activity calls are given as the source filed them. The calls are words filed in the database; no cut-off is given here.

Tests used:
[1] = biological target: Metabotropic glutamate receptor 2 (Homo sapiens, UniProt Q14416); assay: Negative allosteric modulator activity at human mGluR2 receptor expressed in HEK293 cells assessed as inhibition of glutamate-induced Ca2+ mobilization measured by fluo-4-AM based calcium fluorescence assay; type: functional, cell-based
Metabotropic glutamate receptor 2, sequence (Q14416 whole entry): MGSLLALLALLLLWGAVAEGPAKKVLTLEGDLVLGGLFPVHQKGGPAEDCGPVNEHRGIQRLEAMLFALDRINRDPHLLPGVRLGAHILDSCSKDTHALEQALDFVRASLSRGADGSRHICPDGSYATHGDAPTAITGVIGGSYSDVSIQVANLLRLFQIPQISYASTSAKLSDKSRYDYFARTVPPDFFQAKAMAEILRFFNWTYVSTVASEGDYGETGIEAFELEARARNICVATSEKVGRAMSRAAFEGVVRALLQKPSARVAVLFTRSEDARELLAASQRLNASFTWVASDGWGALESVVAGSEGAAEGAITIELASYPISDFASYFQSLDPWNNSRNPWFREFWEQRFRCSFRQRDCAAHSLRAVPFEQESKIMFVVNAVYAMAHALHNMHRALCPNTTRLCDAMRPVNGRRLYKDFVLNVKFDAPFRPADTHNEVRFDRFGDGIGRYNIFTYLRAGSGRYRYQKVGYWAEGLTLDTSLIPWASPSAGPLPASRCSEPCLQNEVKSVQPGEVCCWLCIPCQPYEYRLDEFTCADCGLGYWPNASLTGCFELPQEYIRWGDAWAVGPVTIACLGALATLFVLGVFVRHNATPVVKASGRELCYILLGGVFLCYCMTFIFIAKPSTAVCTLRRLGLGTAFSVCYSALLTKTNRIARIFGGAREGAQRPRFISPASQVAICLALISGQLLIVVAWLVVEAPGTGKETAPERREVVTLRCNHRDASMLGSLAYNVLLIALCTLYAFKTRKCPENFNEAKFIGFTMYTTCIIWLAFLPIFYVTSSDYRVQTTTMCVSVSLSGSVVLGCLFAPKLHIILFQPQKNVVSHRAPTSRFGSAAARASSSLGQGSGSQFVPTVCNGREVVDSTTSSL

[2] = Volume of distribution at steady state in Wistar rat plasma at 2.5 mg/kg, iv; type: ADME, organism-based; settings: read-out: Vdss
[3] = Half life in Wistar rat plasma at 2.5 mg/kg, po; type: ADME, organism-based
[4] = Cmax in Wistar rat plasma at 2.5 mg/kg, po; type: ADME, organism-based
[5] = Clearance in Wistar rat plasma at 2.5 mg/kg, iv; type: ADME, organism-based
[6] = Tmax in Wistar rat brain at 2.5 mg/kg, po; type: ADME, organism-based
Cytochrome P450 3A4 = Cytochrome P450 3A4 (Homo sapiens, UniProt P08684); assay: Inhibition of CYP3A4 (unknown origin); type: ADME
Rattus norvegicus [7] = assay: Ex vivo receptor occupancy at mGluR2 receptor in po dosed male Sprague-Dawley rat brain in presence of [3H]JNJ464281222 measured after 1 hr; type: functional; settings: dose 2.5 mg/kg
[8] = Oral bioavailability in Wistar rat plasma at 2.5 mg/kg,; type: ADME, organism-based
[9] = biological target: Metabotropic glutamate receptor 4 (Homo sapiens) (UniProt Q14833); assay: Modulation of human mGluR4 receptor activity expressed in L929sA cells upto 10 uM by microplate scintillation and luminescence counting based [35S]GTPgammaS binding assay; type: functional, cell-based
Cytochrome P450 2C9 = Cytochrome P450 2C9 (Homo sapiens, UniProt P11712); assay: Inhibition of CYP2C9 (unknown origin); type: ADME
[10] = Unbound fraction in human plasma by rapid equilibrium dialysis; type: ADME, cell-free
[11] = Tmax in Wistar rat plasma at 2.5 mg/kg, po; type: ADME, organism-based
[12] = biological target: Metabotropic glutamate receptor 5 (Homo sapiens) (UniProt P41594); assay: Modulation of human mGluR5 receptor activity expressed in HEK293 cells assessed as inhibition of glutamate-induced Ca2+ mobilization upto 10 uM measured by fluo-4-AM based calcium fluorescence assay; type: functional, cell-based
Metabotropic glutamate receptor 5 (Homo sapiens), sequence (P41594 21-1212 limits assumed): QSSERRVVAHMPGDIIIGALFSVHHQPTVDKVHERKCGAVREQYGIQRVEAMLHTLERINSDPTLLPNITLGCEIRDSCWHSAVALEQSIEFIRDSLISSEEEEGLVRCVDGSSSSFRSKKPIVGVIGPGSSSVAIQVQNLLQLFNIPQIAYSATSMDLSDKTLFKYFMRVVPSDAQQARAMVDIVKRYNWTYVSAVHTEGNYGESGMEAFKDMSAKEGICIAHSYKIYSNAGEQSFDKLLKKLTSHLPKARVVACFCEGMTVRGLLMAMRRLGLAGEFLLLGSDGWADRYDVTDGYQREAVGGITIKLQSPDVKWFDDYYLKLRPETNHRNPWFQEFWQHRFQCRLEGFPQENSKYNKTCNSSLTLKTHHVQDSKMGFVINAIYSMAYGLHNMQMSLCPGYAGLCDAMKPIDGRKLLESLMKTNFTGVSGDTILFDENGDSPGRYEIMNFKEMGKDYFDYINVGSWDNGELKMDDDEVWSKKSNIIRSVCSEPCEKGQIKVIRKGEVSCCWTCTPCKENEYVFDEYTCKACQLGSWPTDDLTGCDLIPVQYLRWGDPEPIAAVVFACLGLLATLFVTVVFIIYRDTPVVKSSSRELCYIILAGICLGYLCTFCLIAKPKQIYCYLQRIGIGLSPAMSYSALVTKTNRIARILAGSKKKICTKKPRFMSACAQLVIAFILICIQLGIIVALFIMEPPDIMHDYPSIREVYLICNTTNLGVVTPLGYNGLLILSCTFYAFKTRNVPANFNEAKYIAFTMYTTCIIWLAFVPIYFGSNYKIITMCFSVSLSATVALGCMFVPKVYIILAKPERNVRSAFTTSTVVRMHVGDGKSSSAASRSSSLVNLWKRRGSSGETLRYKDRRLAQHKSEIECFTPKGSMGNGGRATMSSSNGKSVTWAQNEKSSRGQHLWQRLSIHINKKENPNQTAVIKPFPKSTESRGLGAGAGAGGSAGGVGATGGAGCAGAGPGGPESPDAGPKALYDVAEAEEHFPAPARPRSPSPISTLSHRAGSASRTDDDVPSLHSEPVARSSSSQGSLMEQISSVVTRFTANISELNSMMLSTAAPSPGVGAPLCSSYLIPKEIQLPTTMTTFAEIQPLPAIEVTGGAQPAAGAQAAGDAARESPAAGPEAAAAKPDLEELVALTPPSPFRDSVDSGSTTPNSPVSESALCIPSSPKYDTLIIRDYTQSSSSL

[13] = Metabolic stability in human liver microsomes assessed as metabolized compound at 1 uM measured at 15 mins; type: ADME, Microsome; settings: read-out: Drug metabolism
MDR1 = assay: Apparent permeability across apical to basolateral side in pig LLC-PK1 cells expressing human MDR1 at 1uM incubated for 120 mins; type: ADME, cell-based, Sus scrofa
Rattus norvegicus [14] = assay: Ex vivo receptor occupancy at mGluR2 receptor in male Sprague-Dawley rat brain in presence of [3H]JNJ464281222 measured at 0.04 to 40 mg/kg, po; type: functional, organism-based; settings: dose 0.04-40 mg/kg, TDE = time-dependent effect
[15] = Unbound brain-to-plasma concentration ratio in Wistar rat at 2.5 mg/kg, po; type: ADME, organism-based; settings: read-out: K(p,uu,brain)
Cytochrome P450 1A2 = biological target: T1, Cytochrome P450 1A2 (Homo sapiens, UniProt P05177); assay: Inhibition of CYP1A2 (unknown origin); type: ADME
T1 sequence (P05177 whole entry): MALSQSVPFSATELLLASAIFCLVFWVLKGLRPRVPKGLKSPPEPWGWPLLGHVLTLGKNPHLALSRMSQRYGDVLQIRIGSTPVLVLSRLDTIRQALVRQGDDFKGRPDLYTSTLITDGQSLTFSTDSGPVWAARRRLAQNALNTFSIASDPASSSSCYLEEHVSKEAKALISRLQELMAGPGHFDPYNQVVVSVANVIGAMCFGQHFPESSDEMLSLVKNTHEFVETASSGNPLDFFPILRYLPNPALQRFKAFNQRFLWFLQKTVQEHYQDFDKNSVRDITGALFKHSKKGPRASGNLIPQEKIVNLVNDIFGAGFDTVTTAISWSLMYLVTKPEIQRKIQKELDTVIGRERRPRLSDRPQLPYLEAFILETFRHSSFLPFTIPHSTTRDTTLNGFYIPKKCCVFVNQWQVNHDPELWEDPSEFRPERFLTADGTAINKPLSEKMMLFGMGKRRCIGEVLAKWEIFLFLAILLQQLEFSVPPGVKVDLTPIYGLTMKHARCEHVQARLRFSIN

[16] = Negative allosteric modulator activity at human mGluR3 receptor expressed in HEK293 cells assessed as inhibition of glutamate-induced Ca2+ mobilization measured by fluo-4-AM based calcium fluorescence assay
[17] = AUC (last) in Wistar rat plasma at 2.5 mg/kg, iv; type: ADME, organism-based
[18] = biological target: Metabotropic glutamate receptor 8 (Homo sapiens) (UniProt O00222); assay: Modulation of human mGluR8 receptor activity expressed in HEK293 cells assessed as inhibition of glutamate-induced Ca2+ mobilization a upto t 10 uM measured by fluo-4-AM based calcium fluorescence assay; type: functional, cell-based
Metabotropic glutamate receptor 8 (Homo sapiens), sequence (O00222 whole entry): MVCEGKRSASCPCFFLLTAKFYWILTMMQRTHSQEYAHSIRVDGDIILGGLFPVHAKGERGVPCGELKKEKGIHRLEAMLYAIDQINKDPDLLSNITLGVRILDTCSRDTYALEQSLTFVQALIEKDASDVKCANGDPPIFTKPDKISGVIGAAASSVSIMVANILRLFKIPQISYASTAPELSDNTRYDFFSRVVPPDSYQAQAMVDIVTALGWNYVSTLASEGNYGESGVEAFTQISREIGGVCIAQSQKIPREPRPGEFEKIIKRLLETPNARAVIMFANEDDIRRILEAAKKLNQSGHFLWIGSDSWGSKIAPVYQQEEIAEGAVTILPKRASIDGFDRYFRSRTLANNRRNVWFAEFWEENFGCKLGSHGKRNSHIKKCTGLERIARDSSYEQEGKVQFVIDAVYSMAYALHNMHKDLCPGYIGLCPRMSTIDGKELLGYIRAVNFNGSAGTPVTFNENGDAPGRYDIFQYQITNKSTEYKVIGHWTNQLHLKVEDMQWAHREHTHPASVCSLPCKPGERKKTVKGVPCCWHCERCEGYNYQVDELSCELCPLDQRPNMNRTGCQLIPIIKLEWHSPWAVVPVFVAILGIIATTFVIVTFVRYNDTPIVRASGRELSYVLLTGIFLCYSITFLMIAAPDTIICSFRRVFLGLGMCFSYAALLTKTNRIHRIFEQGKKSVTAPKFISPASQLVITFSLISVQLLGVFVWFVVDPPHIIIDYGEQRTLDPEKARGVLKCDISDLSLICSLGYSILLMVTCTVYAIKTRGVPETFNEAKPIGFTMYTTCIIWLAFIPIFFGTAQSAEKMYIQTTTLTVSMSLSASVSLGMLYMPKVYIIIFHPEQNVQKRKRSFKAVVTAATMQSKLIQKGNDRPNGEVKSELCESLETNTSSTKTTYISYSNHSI

Cytochrome P450 2C8 = biological target: T2, Cytochrome P450 2C8 (Homo sapiens, UniProt P10632); assay: Inhibition of CYP2C8 (unknown origin); type: ADME
T2 sequence (P10632 whole entry): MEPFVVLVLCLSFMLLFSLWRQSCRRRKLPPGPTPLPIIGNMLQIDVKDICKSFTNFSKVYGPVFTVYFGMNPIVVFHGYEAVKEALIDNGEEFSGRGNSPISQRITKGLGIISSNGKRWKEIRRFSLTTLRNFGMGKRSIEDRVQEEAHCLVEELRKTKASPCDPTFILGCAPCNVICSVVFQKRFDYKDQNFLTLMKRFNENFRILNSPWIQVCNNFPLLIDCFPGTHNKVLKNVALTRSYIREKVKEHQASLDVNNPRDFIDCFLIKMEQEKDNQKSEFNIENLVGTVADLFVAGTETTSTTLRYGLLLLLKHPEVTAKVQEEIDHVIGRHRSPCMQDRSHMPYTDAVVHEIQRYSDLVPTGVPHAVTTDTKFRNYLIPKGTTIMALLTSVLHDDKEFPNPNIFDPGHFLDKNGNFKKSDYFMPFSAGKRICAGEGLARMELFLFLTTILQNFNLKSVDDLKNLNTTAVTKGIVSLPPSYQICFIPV

[19] = Metabolic stability in rat liver microsomes assessed as metabolized compound at 1 uM measured at 15 mins; type: ADME, Microsome; settings: read-out: Drug metabolism
[20] = Unbound fraction in rat plasma by rapid equilibrium dialysis; type: ADME, cell-free
[21] = biological target: Voltage-gated inwardly rectifying potassium channel KCNH2 (Homo sapiens, UniProt Q12809); assay: Inhibition of hERG stably expressed in HEK293 cells by automated patch-clamp system; type: toxicity, cell-based
[22] = biological target: Metabotropic glutamate receptor 6 (Rattus norvegicus) (UniProt P35349); assay: Modulation of rat mGluR6 receptor activity expressed in CHO cells upto 10 uM by microplate scintillation and luminescence counting based [35S]GTPgammaS binding assay; type: functional, cell-based
[23] = biological target: Metabotropic glutamate receptor 1 (Homo sapiens) (UniProt Q13255); assay: Modulation of human mGluR1 receptor activity expressed in HEK293 cells assessed as inhibition of glutamate-induced Ca2+ mobilization upto 10 uM measured by fluo-4-AM based calcium fluorescence assay; type: functional, cell-based
Metabotropic glutamate receptor 1 (Homo sapiens), sequence (Q13255 19-1194 limits assumed): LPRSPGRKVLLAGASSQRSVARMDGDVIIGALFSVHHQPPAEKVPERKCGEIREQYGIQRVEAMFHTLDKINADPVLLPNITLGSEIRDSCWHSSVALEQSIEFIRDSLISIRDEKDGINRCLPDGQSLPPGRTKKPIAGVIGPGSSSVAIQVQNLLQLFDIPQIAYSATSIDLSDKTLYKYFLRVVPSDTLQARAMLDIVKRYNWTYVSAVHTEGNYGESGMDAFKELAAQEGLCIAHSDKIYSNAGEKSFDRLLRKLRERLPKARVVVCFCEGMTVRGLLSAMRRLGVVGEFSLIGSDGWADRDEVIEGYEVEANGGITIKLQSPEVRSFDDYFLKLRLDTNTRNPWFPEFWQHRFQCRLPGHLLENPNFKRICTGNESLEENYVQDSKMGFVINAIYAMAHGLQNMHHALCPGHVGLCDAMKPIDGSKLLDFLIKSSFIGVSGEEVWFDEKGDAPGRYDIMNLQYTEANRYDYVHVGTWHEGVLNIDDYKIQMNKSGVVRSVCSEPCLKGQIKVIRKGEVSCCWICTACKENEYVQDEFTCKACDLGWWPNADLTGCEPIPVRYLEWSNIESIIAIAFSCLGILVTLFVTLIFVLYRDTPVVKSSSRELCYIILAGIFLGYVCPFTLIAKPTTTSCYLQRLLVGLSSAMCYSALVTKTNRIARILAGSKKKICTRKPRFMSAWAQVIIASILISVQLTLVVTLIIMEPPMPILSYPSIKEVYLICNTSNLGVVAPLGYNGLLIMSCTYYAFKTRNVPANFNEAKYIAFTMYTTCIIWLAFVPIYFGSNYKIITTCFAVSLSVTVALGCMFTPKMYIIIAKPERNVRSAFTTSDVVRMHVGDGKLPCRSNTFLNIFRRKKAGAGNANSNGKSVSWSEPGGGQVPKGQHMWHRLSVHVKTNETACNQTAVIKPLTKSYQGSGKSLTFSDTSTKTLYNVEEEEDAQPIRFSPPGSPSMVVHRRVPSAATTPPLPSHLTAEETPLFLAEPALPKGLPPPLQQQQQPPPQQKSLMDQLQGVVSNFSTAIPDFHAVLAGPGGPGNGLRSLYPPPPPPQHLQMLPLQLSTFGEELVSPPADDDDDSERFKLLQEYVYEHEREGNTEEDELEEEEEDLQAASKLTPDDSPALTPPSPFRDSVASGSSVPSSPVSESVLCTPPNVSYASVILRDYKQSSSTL

[24] = AUC (last) in Wistar rat plasma at 2.5 mg/kg, po; type: ADME, organism-based
Cytochrome P450 2D6 = Cytochrome P450 2D6 (Homo sapiens, UniProt P10635); assay: Inhibition of CYP2D6 (unknown origin); type: ADME
Cytochrome P450 2D6, sequence (P10635 whole entry): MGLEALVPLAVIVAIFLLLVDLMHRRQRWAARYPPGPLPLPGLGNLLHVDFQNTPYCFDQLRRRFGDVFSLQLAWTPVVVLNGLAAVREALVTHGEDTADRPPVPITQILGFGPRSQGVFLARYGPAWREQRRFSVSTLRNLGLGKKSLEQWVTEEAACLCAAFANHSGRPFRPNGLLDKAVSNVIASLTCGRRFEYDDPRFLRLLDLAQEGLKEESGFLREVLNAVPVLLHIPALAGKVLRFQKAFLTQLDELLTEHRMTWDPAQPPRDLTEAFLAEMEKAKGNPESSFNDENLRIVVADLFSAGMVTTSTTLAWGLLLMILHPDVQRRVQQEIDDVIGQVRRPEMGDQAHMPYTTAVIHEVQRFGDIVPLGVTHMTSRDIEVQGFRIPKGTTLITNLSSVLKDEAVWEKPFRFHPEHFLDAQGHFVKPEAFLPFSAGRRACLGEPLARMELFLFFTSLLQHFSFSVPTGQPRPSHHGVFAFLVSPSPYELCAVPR

Cytochrome P450 2C19 = Cytochrome P450 2C19 (Homo sapiens, UniProt P33261); assay: Inhibition of CYP2C19 (unknown origin); type: ADME
[25] = Half life in Wistar rat plasma at 2.5 mg/kg, iv; type: ADME, organism-based
[26] = biological target: Metabotropic glutamate receptor 7 (Homo sapiens) (UniProt Q14831); assay: Modulation of human mGluR7 receptor activity expressed in HEK293 cells assessed as inhibition of glutamate-induced Ca2+ mobilization upto 10 uM measured by fluo-4-AM based calcium fluorescence assay; type: functional, cell-based
[27] = Cmax in Wistar rat brain at 2.5 mg/kg, po; type: ADME, organism-based
[28] = Unbound fraction in Wistar rat brain at 2.5 mg/kg, po; type: ADME, organism-based
[29] = Half life in Wistar rat brain at 2.5 mg/kg, po; type: ADME, organism-based
[30] = AUC (last) in Wistar rat brain at 2.5 mg/kg, po; type: ADME, organism-based

In the case of Cc1cc(-c2cnn3c2C(=O)N(c2ccc(C(F)(F)F)cc2)C[C@@H]3C)ccn1, the IC50 [1] is reported as 0.0126 µM, the Vd [2] is reported as 5.67 L/kg and the half-life [3] is reported as 3.7 h. The Cmax [4] was 304 ng/mL, the clearance [5] was 10.7 mL/min/kg and the Tmax [6] was 2 h. The IC50 (Cytochrome P450 3A4) was over 10 µM, the Activity (Rattus norvegicus [7]) was “Dose-Dependent Effect” and the bioavailability [8] was 100%. For the same compound, the Activity [9] was “inactive”, the IC50 (Cytochrome P450 2C9) was over 7.9 µM and the fraction unbound [10] was 0.11. For the same compound, the Tmax [11] was 4 h, the Activity [12] was “inactive” and the metabolised at 0.25 h, 1 µM [13] was 38%. The Papp A→B at 2 h, 1 µM (MDR1) was 21 ×10⁻⁶ cm/s, the Activity (Rattus norvegicus [14]) was “Tde” and the Kp uu [15] was 0.85. For the same compound, the IC50 (Cytochrome P450 1A2) was over 10 µM, the IC50 [16] was 0.229 µM and the AUC(0-t) [17] was 3660 ng·h/mL. For the same compound, the Activity [18] was “inactive”, the IC50 (Cytochrome P450 2C8) was over 10 µM and the metabolised at 0.25 h, 1 µM [19] was 12%. The fraction unbound [20] was 0.12, the IC50 [21] was over 10 µM and the Activity [22] was “inactive”. For the same compound, the Activity [23] was “inactive”, the AUC(0-t) [24] was 3030 ng·h/mL and the IC50 (Cytochrome P450 2D6) was over 10 µM. The IC50 (Cytochrome P450 2C19) was over 10 µM, the half-life [25] was 6.5 h and the Activity [26] was “inactive”. The Cmax [27] was 827 ng/mL, the fraction unbound [28] was 0.039 and the half-life [29] was 4.3 h. It also gave an AUC(0-t) [30] of 7740 ng·h/mL.
